{"source": "paper PMC8836295", "about": "“Essential role of pyrophosphate homeostasis mediated by the pyrophosphate-dependent phosphofructokinase in Toxoplasma gondii” (PLoS Pathogens, 2022)", "target": "T1, PFK2-N (Toxoplasma gondii, UniProt A0A125YKV6)", "T1 construct": "gene PFKII; N-terminal phosphofructokinase domain, residues 1-595; recombinant, E. coli Transetta (DE3), plasmid pESUMO-PFK2N (His-SUMO vector), Ni2+ column", "T1 sequence (A0A125YKV6 1-595)": "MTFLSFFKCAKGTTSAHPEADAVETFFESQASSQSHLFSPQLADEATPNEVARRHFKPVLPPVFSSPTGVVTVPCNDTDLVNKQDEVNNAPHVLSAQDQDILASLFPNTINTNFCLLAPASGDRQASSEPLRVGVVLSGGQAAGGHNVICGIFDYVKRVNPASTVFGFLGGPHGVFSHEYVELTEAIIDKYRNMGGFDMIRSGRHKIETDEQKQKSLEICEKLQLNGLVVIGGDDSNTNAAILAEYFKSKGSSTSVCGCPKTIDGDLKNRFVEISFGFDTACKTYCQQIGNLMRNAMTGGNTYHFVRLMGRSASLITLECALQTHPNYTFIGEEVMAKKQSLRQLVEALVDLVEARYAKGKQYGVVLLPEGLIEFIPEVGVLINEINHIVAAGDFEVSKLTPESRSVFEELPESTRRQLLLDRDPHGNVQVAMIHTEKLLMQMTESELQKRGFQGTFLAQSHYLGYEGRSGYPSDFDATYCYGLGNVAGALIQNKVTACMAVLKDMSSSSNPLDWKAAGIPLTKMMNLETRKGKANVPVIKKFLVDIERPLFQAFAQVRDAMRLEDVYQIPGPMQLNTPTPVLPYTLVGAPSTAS", "experiment": "NADH-coupled OD340 assay (PFP activity kit)", "assay_type": "biochemical", "conditions": "co-substrate F6P 4 mM"}
{"smiles": "O=P(O)(O)OP(=O)(O)O", "note": "[PPi]", "values": [{"measurement": "NADH-coupled OD340 assay (PFP activity kit)", "result": "individually purified and assayed for the PPi dependent PFK activity"}]}
